Results as given in paper PMC4655838, “Versatility in phospho-dependent molecular recognition of the XRCC1 and XRCC4 DNA-damage scaffolds by aprataxin-family FHA domains” (DNA Repair, 2015).
Like-named read-outs stand apart in the source and are kept apart here. Square brackets hold non-standard residues; d marks the D form. Peptide text beside a SMILES is read from it. pT = C[C@@H](OP(=O)(O)O)[C@H](N)C(=O)O; pS = N[C@@H](COP(=O)(O)O)C(=O)O

Assays:
Assay type in all cases: binding
aprataxin FHA domain = target: T1, aprataxin FHA domain (Homo sapiens, UniProt Q7Z2E3); assay: NMR (1H-SOFAST-HMQC) titrations of aprataxin FHA domain with XRCC1 phosphopeptides; details: NMR titration, 22 °C
T1 construct: aprataxin residues 1–105; GST (pGEX-6P-1) (N, cleaved yes); made in house; host or cells: Escherichia coli BL21 (DE3)
Experimental: NMR experiments were carried out at 22 °C on Bruker Avance II+ 600 MHz and Avance III 700 MHz spectrometers, each equipped with a cryogenic triple-resonance probe. Protein and peptides were prepared in NMR buffer (20 mM Na Acetate pH 5.8, 50 mM NaCl, 2 mM DTT). Three-dimensional HNCA, HNCO, HNCACB and CBCA(CO)NH experiments were performed to obtain backbone assignments. NMR titration experiments were carried out by adding the unlabelled XRCC1 peptides to ^15N-labeled aprataxin FHA domain. The initial protein concentration was 92 μM and volumes of 2 mM stock solution of peptide were added until the protein:peptide ratio was 1:4. ^1H-SOFAST-HMQC [36] spectra were measured after each titration step. All spectra were processed using nmrPipe, and analysed using CARA/NEASY [38]. The weighted chemical shift change (in ppm units) of each amide proton (ΔδHN) and nitrogen (ΔδN) was calculated according to the equation: Δδtotal = [(ΔδHNWHN)^2 + (ΔδNWN)^2]^1/2 with WHN = 1 and WN = 0.154 [39]. Weighted chemical shifts for residues D37, V45, Q46, V61 and V63 were plotted against peptide concentration to determine individual Kds and averaged to determine the apparent Kd.

[1] = target: T2, wild-type aprataxin FHA domain (Homo sapiens, UniProt Q7Z2E3); assay: ITC of wild-type aprataxin FHA domain with XRCC1 and XRCC4 phosphopeptides; details: 22 °C, 50 mM HEPES pH 7.5, 150 mM NaCl, 5 mM β-mercaptoethanol, peptide in syringe, XRCC1 peptides 1 mM into 100 μM protein, XRCC4 peptides 300 μM into 30 μM protein, single-site model, representative of triplicate
T2 construct: aprataxin residues 1–105; GST (pGEX-6P-1) (N, cleaved yes); made in house; host or cells: Escherichia coli BL21 (DE3)
From the text: (§1) The genes for aprataxin residues 1–105 and APLF residues 1–106 were amplified using primer sets which incorporated 5′ BamHI and 3′ XhoI sites. PCR products and pGEX-6P-1 vector were digested with BamHI and XhoI and religated. All point mutations were generated using a QuickChange Site-Directed Mutagenesis Kit (Stratagene) following the manufacturer's recommended protocol.
(§2) For expression, the pGEX-6P-1/aprataxin-FHA constructs were transformed into Escherichia coli strain BL21 (DE3) and the pGEX-6P-1/APLF-FHA constructs transformed into the strain Rosetta2 (DE3). Cells were grown in LB at 37 °C to an A600 of 0.5, induced with 0.4 mM isopropyl 1-thio-β-D-galactopyranoside and incubated at 18 °C for a further 16 h before harvesting. Cells were lysed by sonication and clarified by centrifugation (20,000 × g × 30 min). The supernatant was applied to a glutathione-4B resin (Amersham) and cleaved from the resin with rhinovirus 3C protease. Proteins were purified further by gel-filtration chromatography on a Superdex 75 matrix in 20 mM Tris pH 7.5, 150 mM NaCl, 5 mM DTT. Selenomethionine-labelled APLF L91 M protein was expressed in Rosetta2 (DE3) cells cultured in SelenoMet base media and nutrients supplemented with seleno-methionine solution (Molecular Dimensions Ltd.) and purified as the wild-type protein.
(§3) Phosphopeptides based on the XRCC1 sequence 515-YAGSTDENTDSEEHQ-529 and the XRCC4 sequence 229-YDESTDEES-237 were synthesised with amidated C-termini to avoid potential end-effects of a free carboxy-terminus by Dr. W. Mawby (University of Bristol), purified by HPLC and characterised by mass spectrometry. FHA-phosphopeptide binding was quantified by isothermal titration calorimetry using a Microcal Omega VP-ITC calorimeter (MicroCal Inc., Northampton, MA). Protein was dialysed against ITC buffer (50 mM HEPES pH 7.5, 150 mM NaCl, 5 mM β-mercaptoethanol) and peptides were dissolved in the dialysis buffer. Experiments were carried out at 22 °C and involved 30 successive 10 μl injections of peptide solution into a sample cell containing protein solution. Titrations with XRCC1 peptides used peptide at 1 mM and protein at 100 μM and titrations with XRCC4 peptides used peptide at 300 μm and protein at 30 μM. Heats of dilution were subtracted and binding isotherms were plotted and analysed with MicroCal origin version 7.0, assuming a single-site binding model.

[2] = target: T3, R42A Mutant of aprataxin FHA domain (Homo sapiens, UniProt Q7Z2E3, R56A); assay: ITC of R42A mutant of aprataxin FHA domain with XRCC1 and XRCC4 phosphopeptides; details: 22 °C, 50 mM HEPES pH 7.5, 150 mM NaCl, 5 mM β-mercaptoethanol, single-site model
T3 construct: aprataxin residues 1–105; GST (pGEX-6P-1) (N, cleaved yes); made in house; host or cells: Escherichia coli BL21 (DE3)
From the text: as §1, §2, §3

[3] = target: T4, K38A Mutant of aprataxin FHA domain (Homo sapiens, UniProt Q7Z2E3, K52A); assay: ITC of K38A mutant of aprataxin FHA domain with XRCC1 and XRCC4 phosphopeptides; details: 22 °C, 50 mM HEPES pH 7.5, 150 mM NaCl, 5 mM β-mercaptoethanol, single-site model
T4 construct: aprataxin residues 1–105; GST (pGEX-6P-1) (N, cleaved yes); made in house; host or cells: Escherichia coli BL21 (DE3)
From the text: as §1, §2, §3

[4] = 20 mM Na Acetate pH 5.8, 50 mM NaCl, 2 mM DTT, 92 µM 15N aprataxin FHA, 2 mM peptide stock, read-out: Kd from weighted chemical shift of residue Asp37
[5] = pH 5.8, 92 µM aprataxin FHA, read-out: Kd from weighted chemical shift of residue Gln46
[6] = pH 5.8, 92 µM aprataxin FHA, read-out: Kd from weighted chemical shift of residue Val45
[7] = pH 5.8, 92 µM aprataxin FHA, read-out: Kd from weighted chemical shift of residue Val61
[8] = pH 5.8, 92 µM aprataxin FHA, read-out: Kd from weighted chemical shift of residue Val63

T3 sequence (Q7Z2E3 15-119 R56A): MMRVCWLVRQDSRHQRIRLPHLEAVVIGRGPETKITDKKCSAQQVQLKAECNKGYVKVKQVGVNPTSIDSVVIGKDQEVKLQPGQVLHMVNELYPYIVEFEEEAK
T4 sequence (Q7Z2E3 15-119 K52A): as the sequence (Q7Z2E3 15-119 R56A) above, with K38A, A42R counted along it
T1 sequence (Q7Z2E3 15-119): as the sequence (Q7Z2E3 15-119 R56A) above, with A42R counted along it
T2 sequence (Q7Z2E3 15-119): as the sequence (Q7Z2E3 15-119 R56A) above, with A42R counted along it

Compound | Kd (aprataxin FHA domain; [4]) [µM] | Kd (aprataxin FHA domain; [5]) [µM] | Kd (aprataxin FHA domain; [6]) [µM] | Kd (aprataxin FHA domain; [7]) [µM] | Kd (aprataxin FHA domain; [8]) [µM] | Kd (aprataxin FHA domain; pH 5.8, tighter binders not well defined due to high protein concentration, read-out: overall apparent affinity (Kdapp) estimated from NMR titrations) [µM] | Kd [1] [µM] | Kd [2] [µM] | Kd [3] [µM]
C[C@H](NC(=O)[C@@H](N)Cc1ccc(O)cc1)C(=O)NCC(=O)N[C@@H](CO)C(=O)N[C@H](C(=O)N[C@@H](CC(=O)O)C(=O)N[C@@H](CCC(=O)O)C(=O)N[C@@H](CC(N)=O)C(=O)N[C@H](C(=O)N[C@@H](CC(=O)O)C(=O)N[C@@H](CO)C(=O)N[C@@H](CCC(=O)O)C(=O)N[C@@H](CCC(=O)O)C(=O)N[C@@H](Cc1c[nH]cn1)C(=O)N[C@@H](CCC(N)=O)C(N)=O)[C@@H](C)OP(=O)(O)O)[C@@H](C)O [YAGSTDENpTDSEEHQ] (HELM PEPTIDE1{Y.A.G.S.T.D.E.N.[C[C@@H](OP(=O)(O)O)[C@H](N[*:1])C(=O)[*:2]].D.S.E.E.H.Q.[am]}$$$$V2.0) | 7.6 | 5.9 | 9.8 | 4 | 7.9 | 7 | 42 ± 3.8 | – | –
C[C@H](NC(=O)[C@@H](N)Cc1ccc(O)cc1)C(=O)NCC(=O)N[C@@H](CO)C(=O)N[C@H](C(=O)N[C@@H](CC(=O)O)C(=O)N[C@@H](CCC(=O)O)C(=O)N[C@@H](CC(N)=O)C(=O)N[C@H](C(=O)N[C@@H](CC(=O)O)C(=O)N[C@@H](COP(=O)(O)O)C(=O)N[C@@H](CCC(=O)O)C(=O)N[C@@H](CCC(=O)O)C(=O)N[C@@H](Cc1c[nH]cn1)C(=O)N[C@@H](CCC(N)=O)C(N)=O)[C@@H](C)OP(=O)(O)O)[C@@H](C)O [YAGSTDENpTDpSEEHQ] (HELM PEPTIDE1{Y.A.G.S.T.D.E.N.[C[C@@H](OP(=O)(O)O)[C@H](N[*:1])C(=O)[*:2]].D.[O=C([C@H](COP(=O)(O)O)N[*:1])[*:2]].E.E.H.Q.[am]}$$$$V2.0) | – | – | – | – | – | – | 33 ± 0.87 | – | –
C[C@H](NC(=O)[C@@H](N)Cc1ccc(O)cc1)C(=O)NCC(=O)N[C@@H](CO)C(=O)N[C@H](C(=O)N[C@@H](CC(=O)O)C(=O)N[C@@H](CCC(=O)O)C(=O)N[C@@H](CC(N)=O)C(=O)N[C@H](C(=O)N[C@@H](CC(=O)O)C(=O)N[C@@H](CO)C(=O)N[C@@H](CCC(=O)O)C(=O)N[C@@H](CCC(=O)O)C(=O)N[C@@H](Cc1c[nH]cn1)C(=O)N[C@@H](CCC(N)=O)C(N)=O)[C@@H](C)O)[C@@H](C)OP(=O)(O)O [YAGSpTDENTDSEEHQ] (HELM PEPTIDE1{Y.A.G.S.[C[C@@H](OP(=O)(O)O)[C@H](N[*:1])C(=O)[*:2]].D.E.N.T.D.S.E.E.H.Q.[am]}$$$$V2.0) | 9.6 | 5.3 | 8.1 | 4.2 | 6.8 | – | 17 ± 0.4 | ≥ 100 | 46 ± 2
C[C@@H](OP(=O)(O)O)[C@H](NC(=O)[C@H](CO)NC(=O)[C@H](CCC(=O)O)NC(=O)[C@H](CC(=O)O)NC(=O)[C@@H](N)Cc1ccc(O)cc1)C(=O)N[C@@H](CC(=O)O)C(=O)N[C@@H](CCC(=O)O)C(=O)N[C@@H](CCC(=O)O)C(=O)N[C@@H](CO)C(N)=O [YDESpTDEES] (HELM PEPTIDE1{Y.D.E.S.[C[C@@H](OP(=O)(O)O)[C@H](N[*:1])C(=O)[*:2]].D.E.E.S.[am]}$$$$V2.0) | – | – | – | – | – | – | 2.1 ± 0.08 | ≥ 100 | 6.8 ± 0.5
C[C@@H](OP(=O)(O)O)[C@H](NC(=O)[C@H](COP(=O)(O)O)NC(=O)[C@H](CCC(=O)O)NC(=O)[C@H](CC(=O)O)NC(=O)[C@@H](N)Cc1ccc(O)cc1)C(=O)N[C@@H](CC(=O)O)C(=O)N[C@@H](CCC(=O)O)C(=O)N[C@@H](CCC(=O)O)C(=O)N[C@@H](CO)C(N)=O [YDEpSpTDEES] (HELM PEPTIDE1{Y.D.E.[O=C([C@H](COP(=O)(O)O)N[*:1])[*:2]].[C[C@@H](OP(=O)(O)O)[C@H](N[*:1])C(=O)[*:2]].D.E.E.S.[am]}$$$$V2.0) | – | – | – | – | – | – | 0.25 ± 0.02 | ≥ 100 | 1.9 ± 0.06
C[C@@H](OP(=O)(O)O)[C@H](NC(=O)[C@H](COP(=O)(O)O)NC(=O)[C@H](CCC(=O)O)NC(=O)[C@H](CC(=O)O)NC(=O)[C@@H](N)Cc1ccc(O)cc1)C(=O)N[C@@H](CC(=O)O)C(=O)N[C@@H](CCC(=O)O)C(=O)N[C@@H](CCC(=O)O)C(=O)N[C@@H](COP(=O)(O)O)C(N)=O [YDEpSpTDEEpS] (H-YDE[pS][pT]DEE[pS]-NH2) | – | – | – | – | – | – | 0.14 ± 0.01 | ≥ 100 | 1.3 ± 0.05
